Data as given in article PMC8745237, “Multiple Antimicrobial Effects of Hybrid Peptides Synthesized Based on the Sequence of Ribosomal S1 Protein from Staphylococcus aureus” (International Journal of Molecular Sciences, 2022).

What was measured:
S. aureus (209P strain) = assay: Preliminary testing of antimicrobial properties on agar, S. aureus; type: cell-based, Staphylococcus aureus
From the text: (§1) Table S4. Results of preliminary testing the antimicrobial properties of the VVVHINGGKF (V10F), GVVVRLANFG (G10G),
VQGLVHISEI (V10I), QQVNVKILGI (Q10I) peptides against S. aureus, MRSA, B. cereus, and E. coli bacteria cells on agar.

MRSA (ATCC 43300 strain) = assay: Preliminary testing of antimicrobial properties on agar, MRSA ATCC 43300; type: cell-based, Methicillin-resistant Staphylococcus aureus
From the text: as §1
(§2) VQGLVHISEI (V10I), QQVNVKILGI (Q10I) peptides against S. aureus, MRSA, B. cereus, and E. coli bacteria cells on agar. […]
MRSA (ATCC 43300 Non-AMP Non-AMP Non-AMP Non-AMP Non-AMP

MRSA (SA 180-F strain) = assay: Preliminary testing of antimicrobial properties on agar, MRSA SA 180-F; type: cell-based, Methicillin-resistant Staphylococcus aureus
From the text: as §1, §2

E. coli (K12 strain) = assay: Preliminary testing of antimicrobial properties on agar, E. coli; type: cell-based, Escherichia coli
From the text: as §1, §2

[1] = test system: B. cereus (IP-5812 strain); assay: Preliminary testing of antimicrobial properties on agar, B. cereus; type: cell-based, Bacillus cereus
From the text: as §1, §2

GVVVRLANFG [G10G]
antimicrobial properties on agar (S. aureus (209P strain); peptide 1 µM): Non-AMP | antimicrobial properties on agar (S. aureus (209P strain); peptide 10 µM): Non-AMP | antimicrobial properties on agar (S. aureus (209P strain); peptide 100 µM): Non-AMP | antimicrobial properties on agar (S. aureus (209P strain); peptide 1000 µM): Non-AMP | antimicrobial properties on agar (S. aureus (209P strain); peptide 10000 µM): AMP | antimicrobial properties on agar (MRSA (ATCC 43300 strain); peptide 1 µM): Non-AMP | antimicrobial properties on agar (MRSA (ATCC 43300 strain); peptide 10 µM): Non-AMP | antimicrobial properties on agar (MRSA (ATCC 43300 strain); peptide 100 µM): Non-AMP | antimicrobial properties on agar (MRSA (ATCC 43300 strain); peptide 1000 µM): Non-AMP | antimicrobial properties on agar (MRSA (ATCC 43300 strain); peptide 10000 µM): Non-AMP | antimicrobial properties on agar (MRSA (SA 180-F strain); peptide 1 µM): Non-AMP | antimicrobial properties on agar (MRSA (SA 180-F strain); peptide 10 µM): Non-AMP | antimicrobial properties on agar (MRSA (SA 180-F strain); peptide 100 µM): Non-AMP | antimicrobial properties on agar (MRSA (SA 180-F strain); peptide 1000 µM): Non-AMP | antimicrobial properties on agar (MRSA (SA 180-F strain); peptide 10000 µM): Non-AMP | antimicrobial properties on agar (E. coli (K12 strain); peptide 1 µM): Non-AMP | antimicrobial properties on agar (E. coli (K12 strain); peptide 10 µM): Non-AMP | antimicrobial properties on agar (E. coli (K12 strain); peptide 100 µM): Non-AMP | antimicrobial properties on agar (E. coli (K12 strain); peptide 1000 µM): Non-AMP | antimicrobial properties on agar (E. coli (K12 strain); peptide 10000 µM): Non-AMP | antimicrobial properties on agar ([1]; peptide 1 µM): Non-AMP | antimicrobial properties on agar ([1]; peptide 10 µM): Non-AMP | antimicrobial properties on agar ([1]; peptide 100 µM): Non-AMP | antimicrobial properties on agar ([1]; peptide 1000 µM): Non-AMP | antimicrobial properties on agar ([1]; peptide 10000 µM): Non-AMP
